In patent publication US20240156790A1, “COMPOUNDS, COMPOSITIONS, AND METHODS FOR MODULATING FERROPTOSIS AND TREATING EXCITOTOXIC DISORDERS” (THE TRUSTEES OF COLUMBIA UNIVERSITY IN THE CITY OF NEW YORK, priority 2018, published 2024):
“Also recorded” adds a separate entry of the source.

What was measured:
[1] = test system: renal tubular ferroptosis; test: Renal tubular ferroptosis model triggered by ferric nitrilotriacetate (Fe-NTA); format: in vivo, Sprague-Dawley rat
Description: Fe(NO3)3·12H2O (Wako, Osaka, Japan) and nitrilotriacetic acid disodium salt (Tokyo Chemical Industry, Tokyo, Japan) were dissolved in deionized water to generate 300 mM and 600 mM solutions, respectively, which were mixed immediately before injections by a ratio of 1:2 (v/v) and then adjusted to pH 7.4 with sodium carbonate to make Fe-NTA solution. PHB4082 was dissolved in 5% DMSO/95% of 65% v/v of 25% w/v 2-hydroxypropyl-β-cyclodextrin (Cayman Chemical) dissolved in 20% EtOH, 30% v/v Poly(ethylene glycol)-400 (Sigma Aldrich 202398), 5% v/v Tween 80 (Fluka 59924) to generate 2 mg/mL solution. The same formulation without PHB4082 was used as vehicle control. For both the solutions ultrasonic disruptor was applied to accelerate the dissolution and they are stored at −20° C. up to one week before injections.
Male wild-type Sprague-Dawley rat (CLEA Japan, Tokyo; n=6 for vehicle control, n=7 for PHB4082 pretreatment) at 4-6 weeks of age were fasted for 12 h prior to intraperitoneal administration of 2 mg/ml PHB4082 solution as pretreatment or with the formulation without PHB4082 as vehicle control. Two hours later all the rats were followed by IP injection of Fe-NTA with a dose of 10 mg iron/kg. The rats were euthanized 24 h after Fe-NTA injection. Fresh kidney tissues were excised and were either fixed in 10% phosphate-buffered formalin or preserved at −80° C. for subsequent analysis. The animal experiment committee of Nagoya University Graduate School of Medicine approved the animal experiments.
Immunostainings were performed by BOND MAX/III (Leica, Wetzlar, Germany) with BOND Polymer Refine Detection (ds9800; Leica) as described. Primary antibodies applied were listed as: anti-4-hydroxy-2-nonenal (HNE) modified proteins antibody (anit-HNEJ-1, in house), anti-transferrin receptor antibody (13-6800, Invitrogen). Quantitation of renal tubular ferroptosis was performed by measuring the necrotized cortical area after H&E staining by identifying the area of necrotized tubules with loss of nuclei. ImageJ was used for quantification of % necrosis area with randomly selected microscopic areas (×20, objective lens; n=9).
We evaluated the ferroptosis protection effect of PHB4082 in a renal tubular ferroptosis model. This model was previously established by Toyokuni lab (Kong et al. 2022; Toyokuni et al. 2022; Akatsuka et al. 2012). A Fenton-reaction based renal carcinogenesis in this model results from repeated intraperitoneal injections of ferric nitrilotriacetate (Fe-NTA). This iron chelate could specifically induce proximal epithelial ferroptosis via single IP administration. […] We chose 24 h after Fe-NTA administration for evaluation of the effects of PHB4082 because this is the peak time for renal tubular necrosis.

HT-1080 cells = test: Rescue activity of Fer-1 analogs: inhibition of erastin-, IKE- or RSL3-induced death (Alamar Blue viability); format: cell-based
[2] = GSH adduct formation (GSH trapping) assay; format: in vitro ADME
Excerpt: We then tested PHB4082 in a GSH adduct formation assay and the Ames test.

Structure (SMILES) | HNE adducts in proximal tubules (HNEJ-1 immunostaining) ([1]; 24 h after Fe-NTA) | TfR1 / TRF1/CD71 signals in proximal tubules ([1]; 24 h after Fe-NTA) | necrotized renal tubular area ([1]; 24 h after Fe-NTA) | survival 24 h after Fe-NTA administration ([1]; IP pretreatment 2 h before Fe-NTA 10 mg iron/kg) | increase in potency compared to fer-1 (HT-1080 cells; suppressing erastin-induced ferroptosis) [fold] | GSH adduct formation / trapping result [2] | EC50 (HT-1080 cells; Homo sapiens, ^a 50% viability, HT-1080 cells treated with 10 μM erastin) [µM]
Cc1noc(-c2ccc(NC3CCCCC3)c(NC3CCCCC3)c2)n1 [PHB4082, N1,N2-dicyclohexyl-4-(3-methyl-1,2,4-oxadiazol-5-yl)benzene-1,2-diamine] | less amounts of HNE adducts | low to moderate signals in the proximal tubules; also recorded: less signals for TRF1/CD71 | dramatically reduced the necrotized renal tubular area | all of those with PHB4082 pretreatment survived 24 hrs | 7 | positive in a GSH trapping assay; also recorded: positive in the GSH adduct formation assay | 
CCOC(=O)c1ccc(NC2CCCCC2)c(N)c1 [Fer-1, Ferrostatin-1, reference compound] |  |  |  |  |  |  | 0.05
